The record followed here is patent US20180369166A1, “GARCINOL COMPOSITIONS FOR THERAPEUTIC MANAGEMENT OF ENDOPLASMIC RETICULUM STRESS” (priority 2017, published 2018).

The subject of one data set is HepG2 Cells. Nature of the data set: Alcohol induced toxicity in HepG2 cells (SRB assay). Format: cell-based, human. Particulars: 10 μg/ml; 1000 mM Ethanol for 72 hours; FIG. 6. The protocol: (§1) HepG2—human liver cell line, primary mouse hepatocytes. Min6—Mouse pancreatic beta cell line, 3T3 L1—mouse preadipocytes wee used for the experiments. Cells were maintained in DMEM containing 25 mM glucose with 10% heat-inactivated fetal calf serum with antibiotics at 37° C. and 5% CO2. When the cells were 70-80% confluent, they were trypsinized, washed and seeded in 96 well plates at a density of 5×10^3 cells per well. Stress was induced by Thapsigargin(1 uM) for 4 hours, glucose (50 and 100 mM) and alcohol (1000 mM) or paracetamol (4 mM) for 72 hours. Garcinol was added along with stressor as prophylactic treatment. As a therapeutic treatment, cells were exposed to stress agent 24 hours following which Garcinol was added to the cells. Protection was assessed by SRB assay after 72 hours of treatment
For evaluating alcohol induced toxicity, HepG2 Cells were exposed to 1000 mM of Ethanol for 72 hours in the presence of different concentrations of Garcinol and protection was assessed by SRB assay. Garcinol conferred hepatoprotection against alcohol induced toxicity by 47% at concentration of 10 μg/ml (FIG. 6).

For data set [1], the system named is Human Liver cell line (HepG2). Description: Thapsigargin induced protein aggregation in human liver cells (thioflavin staining, flow cytometry). Format: cell-based. Conditions: 10 μg/ml, 1 μM Thapsigargin, FIGS. 7a and 7b. As for the experimental part:
as §1
IRE1α phosophorylation levels can be assessed by measuring spliced. XBP-1 product by RT PCR. PERK activation is measured by its phosphorylation levels or by measuring the ATF4 mRNA levels. Activation of ATF4 leads to increased transcription of a network of genes, including those encoding ER chaperones, such as BiP/GRP78.
Effect of Garcinol on Thapsigargin induced ER stress in human liver cells was also evaluated. […] Treated and untreated cells were analysed by Flow cytometry and RT PCR.
For orientation: Flow cytometry measures light scatter and fluorescence of single cells or particles in a stream.

For data set [2], the system named is primary mouse hepatocytes. Description: Thapsigargin induced protein aggregation in primary mouse hepatocytes (thioflavin staining). It is filed as cell-based. Conditions: 10 μg/ml; 1 μM Thapsigargin; FIG. 7c.

Molecules are shown by their SMILES.

Consider `C=C(C)[C@@H](CC=C(C)C)C[C@@]12C[C@@H](CC=C(C)C)C(C)(C)[C@@](CC=C(C)C)(C(=O)C(C(=O)c3ccc(O)c(O)c3)=C1O)C2=O` [Garcinol], for which the “hepatoprotection against alcohol induced toxicity” value in the data set with HepG2 Cells was determined as 47%. For the same molecule, in data set [1], the “reduction in protein aggregation in human liver cells” value is reported as 44.4%. The “reduction in protein aggregation in primary mouse hepatocytes” value in data set [2] was 70.4%.
